Values joined by “and” are separate entries in the source; they are usually repeats but may differ in a detail not shown here. Equal values may be shown once.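 Results reflect a 48-hour exposure of cells in 96-well plates to compound at five concentrations. GI50 is the concentration that inhibits growth by half. TGI marks complete inhibition of growth.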 Where a SMILES comes first, the peptide text is derived from it. [ ]: non-standard residue; d: D form. The star is where a group is joined. ξ: configuration not given here. NMeN = CN[C@@H](CC(N)=O)C(=O)O; NMeV = CN[C@H](C(=O)O)C(C)C; ξNMeV = CNC(C(=O)O)C(C)C; Boc = CC(C)(C)OC(=O)*; ξNMeA = CNC(C)C(=O)O
Key:
Assay in all cases: inhibition of tumour cell growth, NCI panel, 48 h
[1] = system: A498 renal
[2] = system: HCC-2998 colon
[3] = system: HOP-92 NSCLC
[4] = system: NCI-H460 lung
[5] = system: OVCAR-4 ovarian
[6] = system: OVCAR-8 ovarian
[7] = system: SN12C renal
[8] = system: SW-620 colon
[9] = system: UACC-62 melanoma
[10] = system: UO-31 renal

SMILES	TGI [1]	TGI [2]	GI50 [3]	TGI [3] [µM]	TGI [4]	GI50 [5]	TGI [5]	GI50 [6]	TGI [6]	TGI [7]	TGI [8]	GI50 [9]	TGI [9]	TGI [10]	GI50 [8]	GI50 [1]	GI50 [2]	GI50 [4]	GI50 [7]	GI50 [10]
O=[N+]([O-])c1ccc(N=Nc2c(O)ccc3ccccc23)cc1	> 100 µM	> 100 µM	32.5 µM and > 100 µM	> 100	> 100 µM	24.3 µM and > 100 µM	65.7 µM and > 100 µM	> 100 µM	> 100 µM	> 100 µM	> 100 µM	18.3 µM and > 100 µM	> 100 µM	> 100 µM	–	–	–	–	–	–
COc1cc(C(=O)C/C(CCC(=O)Nc2ccc(Cl)cc2C)=N/NC(=O)C(N)=O)ccc1O	> 100 µM	> 100 µM	–	> 100	> 100 µM	–	> 100 µM	–	> 100 µM	> 100 µM	> 100 µM	–	> 100 µM	> 100 µM	–	–	–	–	–	–
CCCCCCCCCCC(O)C1CCC(C(O)CCC(O)C2CCC(CCCCCCC[C@H](O)CC3=C[C@@H](C)OC3=O)O2)O1 (stereo partly drawn)	> 82 µM	> 100 µM	–	> 100	> 100 µM	–	> 100 µM	7.39 µM	34 µM	> 100 µM	> 100 µM	0.466 µM	> 100 µM	> 86.1 µM	9.3 µM	–	–	–	–	–
COC(=O)C(C)N(C)C(=O)[C@H](CC(N)=O)N(C)C(=O)[C@@H]1CCCN1C(=O)[C@H](C(C)C)N(C)C(=O)C(C(C)C)N(C)C(=O)[C@@H](NC(=O)OC(C)(C)C)C(C)C (stereo partly drawn) (Boc-V[ξNMeV][NMeV]P[NMeN][ξNMeA]-OMe)	> 100 µM	> 100 µM	> 100 µM	> 100	> 50 µM and 32.7 µM	–	> 100 µM	–	> 100 µM	> 100 µM	> 50 µM and 26.7 µM	> 100 µM	> 100 µM	50 µM and > 100 µM	12.7 µM	> 100 µM	> 100 µM	17.9 µM	> 100 µM	> 100 µM
Cc1occc1C(=S)Nc1ccc(Cl)c(/C=N/OC(C)C)c1	49.9 µM	> 59.6 µM	–	37.4	> 57.5 µM	–	> 59.7 µM	–	> 55.4 µM	35.1 µM	52.3 µM	–	29.2 µM	42.8 µM	–	–	–	–	–	–
Cc1ccc(NC(=O)CC(=O)n2nc(-c3ccccc3)c(N=Nc3ccccc3Cl)c2-c2ccccc2)cc1	> 100 µM	> 100 µM	–	63	> 100 µM	–	87.2 µM	–	> 100 µM	> 100 µM	> 100 µM	–	> 100 µM	> 100 µM	–	–	> 100 µM	–	> 100 µM	> 100 µM
O=C([CH-]C(=O)c1ccccc1)c1ccccc1.O=C([CH-]C(=O)c1ccccc1)c1ccccc1.O=C([CH-]C(=O)c1ccccc1)c1ccccc1.[OH3+].[Y+3]	43.1 µM	25.8 µM	10 µM	25.3	34.6 µM	8.77 µM	46 µM	3.5 µM	21.8 µM	26.7 µM	22.8 µM	5.73 µM	22.3 µM	14.7 µM	5.14 µM	16.3 µM	10.3 µM	4.29 µM	4.68 µM	4.51 µM
CC1=C2C[C@H]3[C@@H](CC=C4C[C@@H](O)CC[C@@]43C)[C@@H]2CC[C@]12O[C@@H]1C[C@H](C)CN[C@H]1[C@H]2C	50 µM and 37.9 µM	50 µM and 39.4 µM	21.6 µM	57.9	50 µM and 44.4 µM	32.1 µM and 18.8 µM	50 µM and 37.3 µM	11.6 µM and 20.2 µM	50 µM and 48.5 µM	50 µM and 47.4 µM	> 100 µM	24.6 µM and 21.1 µM	50 µM and 43.7 µM	35.9 µM and 37.2 µM	> 50 µM and 32.9 µM	43.2 µM and 19.4 µM	16.9 µM and 21.6 µM	21.8 µM and 19.9 µM	25.6 µM and 18.3 µM	11.5 µM and 19 µM
CCc1nc(N)nc(C(=O)NCCNC(=O)c2nc(N)nc(CC)c2C)c1C	> 100 µM	> 100 µM	–	> 100	> 100 µM	–	> 100 µM	–	> 100 µM	> 100 µM	> 100 µM	–	> 100 µM	> 100 µM	–	–	–	–	–	–
c1ccc2c(c1)-c1ccccc1C2N1CC2CCC(CC2)C1	40.1 µM	31.4 µM	–	48.5	52.2 µM	–	> 100 µM	–	> 100 µM	55.6 µM	49.1 µM	–	44.5 µM	94.6 µM	–	–	–	–	–	–
Cc1cc(N2CCN(c3ccnc4cc(Cl)ccc34)CC2)nc(NC2CCCCC2)n1	3.21 µM	3.84 µM	1.08 µM	3.04	3.71 µM	2.08 µM	8.77 µM	2.39 µM	6.35 µM	3.73 µM	4.35 µM	1.66 µM	3.34 µM	3.13 µM	1.87 µM	0.118 µM	2 µM	1.88 µM	1.82 µM	1.4 µM
O=C(Nc1ccc(F)cc1F)c1cc(Br)ccc1O	2.75 µM	29.9 µM	0.593 µM	3.9	> 100 µM	2.1 µM	92 µM	3.01 µM	> 100 µM	9.26 µM	55.9 µM	1.23 µM	3.82 µM	6.01 µM	3.06 µM	1.07 µM	3.75 µM	2.9 µM	2.26 µM	1.43 µM
O=S(=O)(c1ccc(N=C2NN=C(c3c[nH]c4ccccc34)CS2)cc1)N1CCOCC1	> 100 µM	> 100 µM	3.7 µM	> 100	> 100 µM	15.6 µM	> 100 µM	9.61 µM	> 100 µM	> 100 µM	> 100 µM	26.8 µM	> 100 µM	> 100 µM	77.2 µM	15.7 µM	24.6 µM	5.04 µM	79.4 µM	19.1 µM
COc1ccc(-c2nc3ncccn3c2/C=C/C(=O)c2cc(OC)c(OC)c(OC)c2)cc1	6.28 µM	2.92 µM	1.43 µM	12	2.74 µM	2.91 µM	14.3 µM	2.72 µM	> 100 µM	35.1 µM	3.94 µM	1.82 µM	3.42 µM	4.17 µM	1.75 µM	2.13 µM	1.58 µM	1.43 µM	2.56 µM	0.514 µM

Source: PubChem BioAssay (NCI)
